Measured values published in US9120812B2, “Pyrimidooxazocine derivatives as mTOR-inhibitors” (SANOFI, priority 2012, dated 2015).

Columns and labels:
[1] = target: mTOR (human recombinant aa mTOR 1360-2549) (Homo sapiens (Human), UniProt P42345); assay: mTOR enzymatic test by TR-FRET (phosphorylation of GFP-4EBP1); format: biochemical
Summary of the method: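 After a 30 min room-temperature kinase reaction, EDTA (10 mM final) and Tb-labelled phospho-Thr46 antibody (2 nM final) were added and incubated 60 min. Energy transfer from Tb to phosphorylated GFP-4EBP1 was read at 340 nm excitation, emissions 490/520 nm. Values derive from the 520/490 fluorescence ratio.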

[2] = target: PI3Kα (p110α/p85α) (Homo sapiens (Human), UniProt P42336); assay: PI3Kα enzymatic test by measuring the consumption of ATP; format: biochemical
Summary of the method: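 ATP consumption read out by KinaseGlo luminescence after a 90 min reaction of 1.7 μg/ml PI3Kα (p110α/p85α) with 2 μM ATP and 50 μM PIP2, buffered at pH 7.5 (Tris, 10 mM MgCl2, 1 mM EGTA, 0.03% Chaps, 1 mM DTT). Threefold dilution series over ≥10 000-fold range yield IC50.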

[3] = tested on: Akt-pS473 in U87MG cells; conditions: Homo sapiens, U-87 MG, read-out: U87 Akt-pS473 % Inhibition or IC50, nM (IC50), U87MG cells
[4] = tested on: U87MG tumour cells; assay: Test of in vitro proliferation of U87MG tumour cells; format: cell-based; conditions: Homo sapiens, U-87 MG, 72 h, U87MG cells, 72 hours; read-out: U87 Cell Proliferation IC50
Method: Model 4: Test of in vitro Proliferation of U87MG Tumour Cells.
The cell growth is determined with the reagent CellTiter 96 AQueous One Solution Cell Proliferation Assay from Promega (Cat. No. G3581).

Chain of PI3Kα (p110α/p85α) (P42336 whole entry): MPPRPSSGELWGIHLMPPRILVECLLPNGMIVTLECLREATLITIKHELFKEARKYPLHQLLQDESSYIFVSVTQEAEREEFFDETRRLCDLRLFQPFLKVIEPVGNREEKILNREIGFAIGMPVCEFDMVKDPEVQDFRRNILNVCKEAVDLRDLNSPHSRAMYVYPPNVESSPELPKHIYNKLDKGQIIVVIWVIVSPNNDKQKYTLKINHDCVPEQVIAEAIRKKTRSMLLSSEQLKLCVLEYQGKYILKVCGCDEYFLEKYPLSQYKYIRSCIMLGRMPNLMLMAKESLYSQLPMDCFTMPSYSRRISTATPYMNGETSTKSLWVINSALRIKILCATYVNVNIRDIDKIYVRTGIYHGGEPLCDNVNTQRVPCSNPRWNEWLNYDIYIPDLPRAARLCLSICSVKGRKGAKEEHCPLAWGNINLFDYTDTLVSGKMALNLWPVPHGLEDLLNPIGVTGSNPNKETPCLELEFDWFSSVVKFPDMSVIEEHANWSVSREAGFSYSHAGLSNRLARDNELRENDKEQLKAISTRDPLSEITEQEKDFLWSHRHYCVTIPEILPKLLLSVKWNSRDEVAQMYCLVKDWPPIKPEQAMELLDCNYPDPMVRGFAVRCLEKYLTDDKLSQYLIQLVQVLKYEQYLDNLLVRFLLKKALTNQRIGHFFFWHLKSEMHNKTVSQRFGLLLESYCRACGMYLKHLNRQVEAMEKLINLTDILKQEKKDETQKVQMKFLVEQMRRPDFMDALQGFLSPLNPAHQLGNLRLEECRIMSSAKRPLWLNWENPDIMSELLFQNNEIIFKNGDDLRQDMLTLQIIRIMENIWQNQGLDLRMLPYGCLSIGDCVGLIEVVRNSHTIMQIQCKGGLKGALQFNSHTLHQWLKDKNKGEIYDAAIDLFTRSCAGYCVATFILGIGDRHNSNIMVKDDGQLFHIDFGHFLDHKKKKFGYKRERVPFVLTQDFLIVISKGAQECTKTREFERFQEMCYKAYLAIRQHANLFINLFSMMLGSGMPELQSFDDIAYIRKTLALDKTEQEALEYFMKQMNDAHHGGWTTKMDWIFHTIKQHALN
Chain of PI3Kα (p110α/p85α) (P27986 whole entry partner): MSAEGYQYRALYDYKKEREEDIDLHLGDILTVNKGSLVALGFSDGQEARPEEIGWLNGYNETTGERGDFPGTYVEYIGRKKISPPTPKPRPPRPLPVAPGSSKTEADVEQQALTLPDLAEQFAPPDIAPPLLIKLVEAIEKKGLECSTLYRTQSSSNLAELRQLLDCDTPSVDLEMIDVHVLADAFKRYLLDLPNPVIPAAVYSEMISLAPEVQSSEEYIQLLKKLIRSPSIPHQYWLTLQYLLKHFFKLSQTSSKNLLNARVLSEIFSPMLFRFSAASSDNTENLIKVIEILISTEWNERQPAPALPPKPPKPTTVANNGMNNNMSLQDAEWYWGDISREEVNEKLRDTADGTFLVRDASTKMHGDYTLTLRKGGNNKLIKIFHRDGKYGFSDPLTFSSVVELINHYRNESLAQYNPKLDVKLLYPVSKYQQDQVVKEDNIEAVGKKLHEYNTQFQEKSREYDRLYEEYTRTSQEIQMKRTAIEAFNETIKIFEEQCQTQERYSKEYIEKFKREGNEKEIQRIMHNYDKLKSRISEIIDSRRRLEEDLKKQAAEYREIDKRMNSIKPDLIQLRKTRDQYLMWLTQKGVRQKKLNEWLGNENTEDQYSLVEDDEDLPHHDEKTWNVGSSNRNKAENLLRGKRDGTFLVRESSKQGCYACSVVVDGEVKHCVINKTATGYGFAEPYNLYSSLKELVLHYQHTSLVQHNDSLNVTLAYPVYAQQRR
Chain of mTOR (human recombinant aa mTOR 1360-2549) (P42345 1360-2549): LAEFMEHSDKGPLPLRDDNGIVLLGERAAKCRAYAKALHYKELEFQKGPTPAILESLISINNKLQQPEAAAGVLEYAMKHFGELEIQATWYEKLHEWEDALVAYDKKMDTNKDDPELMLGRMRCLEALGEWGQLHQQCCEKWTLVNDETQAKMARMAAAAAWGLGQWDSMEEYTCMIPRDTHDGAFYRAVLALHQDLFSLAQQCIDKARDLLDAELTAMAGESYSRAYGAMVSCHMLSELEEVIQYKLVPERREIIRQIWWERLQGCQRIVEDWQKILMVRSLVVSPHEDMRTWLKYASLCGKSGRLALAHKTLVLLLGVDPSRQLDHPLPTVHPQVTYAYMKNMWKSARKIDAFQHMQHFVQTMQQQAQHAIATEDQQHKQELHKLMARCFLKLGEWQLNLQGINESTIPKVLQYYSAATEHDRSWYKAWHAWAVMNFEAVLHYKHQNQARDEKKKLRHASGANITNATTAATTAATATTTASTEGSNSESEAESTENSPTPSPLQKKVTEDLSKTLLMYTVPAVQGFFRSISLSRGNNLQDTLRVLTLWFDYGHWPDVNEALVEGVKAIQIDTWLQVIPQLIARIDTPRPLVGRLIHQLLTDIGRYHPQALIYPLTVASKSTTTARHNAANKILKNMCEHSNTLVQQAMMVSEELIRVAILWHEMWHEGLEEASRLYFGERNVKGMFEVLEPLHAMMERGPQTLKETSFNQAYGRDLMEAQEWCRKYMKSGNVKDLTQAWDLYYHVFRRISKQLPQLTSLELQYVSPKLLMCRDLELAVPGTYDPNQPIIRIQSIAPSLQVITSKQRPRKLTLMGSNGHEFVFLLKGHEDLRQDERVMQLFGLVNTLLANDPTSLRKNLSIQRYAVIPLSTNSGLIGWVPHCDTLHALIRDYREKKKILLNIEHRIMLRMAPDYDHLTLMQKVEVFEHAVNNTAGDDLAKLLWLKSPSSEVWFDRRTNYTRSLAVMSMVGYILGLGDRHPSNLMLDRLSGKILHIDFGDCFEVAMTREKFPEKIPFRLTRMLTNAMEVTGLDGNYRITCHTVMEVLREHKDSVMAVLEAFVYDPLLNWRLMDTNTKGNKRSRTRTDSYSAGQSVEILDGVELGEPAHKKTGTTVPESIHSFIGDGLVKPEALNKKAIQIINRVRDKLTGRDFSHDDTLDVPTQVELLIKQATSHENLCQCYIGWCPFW

SMILES | IC50 [1] [nM] | PI3Ka IC50 [2] [nM] | IC50 [3] [nM] | IC50 [4] [nM]
CCN1CC(C)(C)Oc2nc(N3CC4CCC(C3)O4)nc(-c3ccc(NC(=O)OC[C@H](C)O)c(F)c3)c2C1=O [Example 20, {4-[6-ethyl-8,8-dimethyl-2-(8-oxa-3-azabicyclo[3.2.1]oct-3-yl)-5-oxo-5,6,7,8-tetrahydro-9-oxa-1,3,6-triazabenzocyclohepten-4-yl]-2-fluorophenyl}carbamic acid (S)-2-hydroxypropyl ester] | 286 | >10000 | > 1000 | 7590
COc1ccnc(NC(=O)Nc2ccc(-c3nc(N4CC5CCC(C4)O5)nc4c3C(=O)N(C)CC(C)(C)O4)cc2)c1 [Example 21, 1-(4-methoxypyridin-2-yl)-3-{4-[6,8,8-trimethyl-2-(8-oxa-3-azabicyclo[3.2.1]oct-3-yl)-5-oxo-5,6,7,8-tetrahydro-9-oxa-1,3,6-triazabenzocyclohepten-4-yl]phenyl}urea] | 15 | >10000 | 51 | 549
CCN1CC(C)(C)Oc2nc(N3CC4CCC(C3)O4)nc(-c3ccc(NC(=O)Nc4ccc(OC5CCN(C)CC5)nc4)c(F)c3)c2C1=O [Example 22, 1-{4-[6-ethyl-8,8-dimethyl-2-(8-oxa-3-azabicyclo[3.2.1]oct-3-yl)-5-oxo-5,6,7,8-tetrahydro-9-oxa-1,3,6-triazabenzocyclohepten-4-yl]-2-fluorophenyl}-3-[6-(1-methylpiperidin-4-yloxy)pyridin-3-yl]urea] | 76 | 3070 | 28 | 68
CCN1CC(C)(C)Oc2nc(N3CCOC[C@@H]3C)nc(-c3ccc(NC(=O)Nc4ccc(C(=O)N5CCC(N(C)C)CC5)cc4)cc3)c2C1=O [Example 23, 1-[4-(4-dimethylaminopiperidine-1-carbonyl)phenyl]-3-{4-[6-ethyl-8,8-dimethyl-2-((S)-3-methylmorpholin-4-yl)-5-oxo-5,6,7,8-tetrahydro-9-oxa-1,3,6-triazabenzocyclohepten-4-yl]phenyl}urea] | 51 | 79 | 62 | 30
CCN1CC(C)(C)Oc2nc(N3CC4CCC(C3)O4)nc(-c3ccc(NC(=O)Nc4ccc(N5CCCC5)cn4)cc3)c2C1=O [Example 25, 1-{4-[6-ethyl-8,8-dimethyl-2-(8-oxa-3-azabicyclo[3.2.1]oct-3-yl)-5-oxo-5,6,7,8-tetrahydro-9-oxa-1,3,6-triazabenzocyclohepten-4-yl]phenyl}-3-(5-pyrrolidin-1-ylpyridin-2-yl)urea] | 130 | >10000 | 124 | 196
CCN1CC(C)(C)Oc2nc(N3CCOC[C@@H]3C)nc(-c3ccc(NC(=O)Nc4ccon4)c(C)c3)c2C1=O [Example 26, 1-{4-[6-ethyl-8,8-dimethyl-2-((S)-3-methylmorpholin-4-yl)-5-oxo-5,6,7,8-tetrahydro-9-oxa-1,3,6-triazabenzocyclohepten-4-yl]-2-methylphenyl}-3-isoxazol-3-ylurea] | 112 | 3860 | > 1000 | 3570
CCN1CC(C)(C)Oc2nc(N3CC4CCC(C3)O4)nc(-c3ccc(NC(=O)Nc4cncc(OC)n4)cc3)c2C1=O [Example 28, 1-{4-[6-ethyl-8,8-dimethyl-2-(8-oxa-3-azabicyclo[3.2.1]oct-3-yl)-5-oxo-5,6,7,8-tetrahydro-9-oxa-1,3,6-triazabenzocyclohepten-4-yl]phenyl}-3-(6-methoxypyrazin-2-yl)urea] | 59 | >10000 | 42 | 508
CCN1CC(C)(C)Oc2nc(N3CC4CCC(C3)O4)nc(-c3ccc(NC(=O)Nc4ccc(N5CCOC[C@@H]5C)nc4)c(F)c3)c2C1=O [Example 29, 1-{4-[6-ethyl-8,8-dimethyl-2-(8-oxa-3-azabicyclo[3.2.1]oct-3-yl)-5-oxo-5,6,7,8-tetrahydro-9-oxa-1,3,6-triazabenzocyclohepten-4-yl]-2-fluorophenyl}-3-[6-((S)-3-methylmorpholin-4-yl)pyridin-3-yl]urea] | 38 | >10000 | 32 | 165
CCN1CC(C)(C)Oc2nc(N3CC4CCC(C3)O4)nc(-c3ccc(NC(=O)Nc4ccc(N5CCOC[C@H]5C)nc4)c(F)c3)c2C1=O [Example 30, 1-{4-[6-ethyl-8,8-dimethyl-2-(8-oxa-3-azabicyclo[3.2.1]oct-3-yl)-5-oxo-5,6,7,8-tetrahydro-9-oxa-1,3,6-triazabenzocyclohepten-4-yl]-2-fluorophenyl}-3-[6-((R)-3-methylmorpholin-4-yl)pyridin-3-yl]urea] | 21 | >10000 | 15 | 46
CCN1CC(C)(C)Oc2nc(N3CC4CCC(C3)O4)nc(-c3ccc(NC(=O)Nc4ccc(N5CCCCC5)nc4)c(F)c3)c2C1=O [Example 31, 1-{4-[6-Ethyl-8,8-dimethyl-2-(8-oxa-3-azabicyclo[3.2.1]oct-3-yl)-5-oxo-5,6,7,8-tetrahydro-9-oxa-1,3,6-triazabenzocyclohepten-4-yl]-2-fluorophenyl}-3-(3,4,5,6-tetrahydro-2H-[1,2′]bipyridinyl-5′-yl)urea] | 65 | >10000 | 17 | 35
CCN1CC(C)(C)Oc2nc(N3CC4CCC(C3)O4)nc(-c3ccc(NC(=O)Nc4ccc(N5CCCC5)nc4)c(F)c3)c2C1=O [Example 32, 1-{4-[6-Ethyl-8,8-dimethyl-2-(8-oxa-3-azabicyclo[3.2.1]oct-3-yl)-5-oxo-5,6,7,8-tetrahydro-9-oxa-1,3,6-triazabenzocyclohepten-4-yl]-2-fluorophenyl}-3-(6-pyrrolidin-1-ylpyridin-3-yl)urea] | 84 | >10000 | 21 | 115
CCN1CC(C)(C)Oc2nc(N3CC4CCC(C3)O4)nc(-c3ccc(NC(=O)Nc4ccccn4)cc3)c2C1=O [Example 33, 1-{4-[6-Ethyl-8,8-dimethyl-2-(8-oxa-3-azabicyclo[3.2.1]oct-3-yl)-5-oxo-5,6,7,8-tetrahydro-9-oxa-1,3,6-triazabenzocyclohepten-4-yl]phenyl}-3-pyridin-2-ylurea] | 24 | 9240 | 42 | 226
CCN1CC(C)(C)Oc2nc(N3CC4CCC(C3)O4)nc(-c3ccc(NC(=O)Nc4ccc(C)cn4)cc3)c2C1=O [Example 34, 1-{4-[6-Ethyl-8,8-dimethyl-2-(8-oxa-3-azabicyclo[3.2.1]oct-3-yl)-5-oxo-5,6,7,8-tetrahydro-9-oxa-1,3,6-triazabenzocyclohepten-4-yl]phenyl}-3-(5-methylpyridin-2-yl)urea] | 43 | >10000 | 70 | 320
CCN1CC(C)(C)Oc2nc(N3CC4CCC(C3)O4)nc(-c3ccc(NC(=O)Nc4cc(OC)ccn4)cc3)c2C1=O [Example 35, 1-{4-[6-Ethyl-8,8-dimethyl-2-(8-oxa-3-azabicyclo[3.2.1]oct-3-yl)-5-oxo-5,6,7,8-tetrahydro-9-oxa-1,3,6-triazabenzocyclohepten-4-yl]phenyl}-3-(4-methoxypyridin-2-yl)urea] | 37 | >10000 | 75 | 336
CCN1CC(C)(C)Oc2nc(N3CCOC[C@@H]3C)nc(-c3ccc(NC(=O)Nc4cccc(C)n4)cc3)c2C1=O [Example 36, 1-{4-[6-Ethyl-8,8-dimethyl-2-((S)-3-methylmorpholin-4-yl)-5-oxo-5,6,7,8-tetrahydro-9-oxa-1,3,6-triazabenzocyclohepten-4-yl]phenyl}-3-(6-methylpyridin-2-yl)urea] | 55 | 4400 | 129 | 686
CC[C@H]1COCCN1c1nc2c(c(-c3ccc(NC(=O)Nc4ccc(C)nc4)c(F)c3)n1)C(=O)N(CC)CC(C)(C)O2 [Example 37, 1-{4-[6-Ethyl-2-((S)-3-ethylmorpholin-4-yl)-8,8-dimethyl-5-oxo-5,6,7,8-tetrahydro-9-oxa-1,3,6-triazabenzocyclohepten-4-yl]-2-fluorophenyl}-3-(6-methylpyridin-3-yl)urea] | 122 | 8630 | 54 | 869
CNC(=O)Nc1ccc(-c2nc(N3CC4CCC(C3)O4)nc3c2C(=O)N(C)CC(C)(C)O3)cc1 [Example 38, 1-Methyl-3-{4-[6,8,8-trimethyl-2-(8-oxa-3-azabicyclo[3.2.1]oct-3-yl)-5-oxo-5,6,7,8-tetrahydro-9-oxa-1,3,6-triazabenzocyclohepten-4-yl]phenyl}urea] | 22 | 3450 | 23 | 218
CN1CC(C)(C)Oc2nc(N3CC4CCC(C3)O4)nc(-c3ccc(NC(=O)Nc4ccccn4)cc3)c2C1=O [Example 39, 1-Pyridin-2-yl-3-{4-[6,8,8-trimethyl-2-(8-oxa-3-azabicyclo[3.2.1]oct-3-yl)-5-oxo-5,6,7,8-tetrahydro-9-oxa-1,3,6-triazabenzocyclohepten-4-yl]phenyl}urea] | 26 | 5870 | 34 | 207
